Results published in patent publication US20100022491A1, “4-HYDROXY-2-OXO-2,3-DIHYDRO-1,3-BENZOTHIAZOL-7YL COMPOUNDS FOR MODULATION OF B2-ADRENORECEPTOR ACTIVITY” (ASTRAZENECA AB, priority 2006, published 2010).
Structures can show the parent of a compound that is named as a salt.

Columns and labels:
[1] = biological target: T1, Adrenergic β2 (Homo sapiens, UniProt P07550); assay: Adrenergic β2 mediated cAMP production in H292 cells; assay type: cell-based; conditions: for EC50: H292 cells, cAMP by AlphaScreen, 60 minutes at room temperature, rolipram 300 μM, read-out: β2 pEC50 (converted); for β2 Int Act: Intrinsic Activity as a fraction relative to the maximum activity determined for formoterol
T1 construct: Adherent H292 cells were removed from tissue culture flasks; endogenous in cells; host or cells: H292 cells
T1 sequence (P07550 whole entry): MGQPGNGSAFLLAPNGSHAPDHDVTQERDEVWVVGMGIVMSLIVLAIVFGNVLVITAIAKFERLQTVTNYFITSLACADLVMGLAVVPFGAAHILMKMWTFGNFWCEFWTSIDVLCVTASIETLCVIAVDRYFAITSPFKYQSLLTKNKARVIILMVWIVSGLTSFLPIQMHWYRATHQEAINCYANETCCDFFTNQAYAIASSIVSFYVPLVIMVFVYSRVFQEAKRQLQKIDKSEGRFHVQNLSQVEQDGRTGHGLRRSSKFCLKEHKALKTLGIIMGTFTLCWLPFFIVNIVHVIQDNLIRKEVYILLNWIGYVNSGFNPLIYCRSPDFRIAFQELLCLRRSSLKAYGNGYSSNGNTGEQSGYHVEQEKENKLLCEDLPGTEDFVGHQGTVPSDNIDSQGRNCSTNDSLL
Protocol: Adrenergic β2 mediated cAMP production
H292 cells were grown in 225 cm2 flasks incubator at 37° C., 5% CO2 in RPMI medium containing, 10% (v/v) FBS (foetal bovine serum) and 2 mM L-glutamine.
Adherent H292 cells were removed from tissue culture flasks by treatment with Accutase™ cell detachment solution for 15 minutes. Flasks were incubated for 15 minutes in a humidified incubator at 37° C., 5% CO2. Detached cells were re-suspended in RPMI media (containing 10% (v/v) FBS and 2 mM L-glutamine) at 0.05×10^6 cells per mL. 5000 cells in 100 μL were added to each well of a tissue-culture-treated 96-well plate and the cells incubated overnight in a humidified incubator at 37° C., 5% CO2. The culture media was removed and cells were washed twice with 100 μL assay buffer and replaced with 50 μL assay buffer (HBSS solution containing 10 mM HEPES pH7.4 and 5 mM glucose). Cells were rested at room temperature for 20 minutes after which time 25 μL of rolipram (1.2 mM made up in assay buffer containing 2.4% (v/v) dimethylsulphoxide) was added. Cells were incubated with rolipram for 10 minutes after which time test compounds were added and the cells were incubated for 60 minutes at room temperature. The final rolipram concentration in the assay was 300 μM and final vehicle concentration was 1.6% (v/v) dimethylsulphoxide. The reaction was stopped by removing supernatants, washing once with 100 μL assay buffer and replacing with 50 μL lysis buffer. The cell monolayer was frozen at −80° C. for 30 minutes (or overnight).
The concentration of cAMP (cyclic adenosine monophosphate) in the cell lysate was determined using AlphaScreen™ methodology. The frozen cell plate was thawed for 20 minutes on a plate shaker then 10 μL of the cell lysate was transferred to a 96-well white plate. 40 μL of mixed AlphaScreen™ detection beads pre-incubated with biotinylated cAMP, was added to each well and the plate incubated at room temperature for 10 hours in the dark. The AlphaScreen™ signal was measured using an EnVision spectrophotometer (Perkin-Elmer Inc.) with the recommended manufacturer's settings. cAMP concentrations were determined by reference to a calibration curve determined in the same experiment using standard cAMP concentrations. Concentration response curves for agonists were constructed and data was fitted to a four parameter logistic equation to determine both the pEC50 and Intrinsic Activity. Intrinsic Activity was expressed as a fraction relative to the maximum activity determined for formoterol in each experiment.

[2] = biological target: T2, recombinant human adrenergic beta 1 receptors (Homo sapiens, UniProt P08588); assay: Adrenergic β1 selectivity binding assay ([125I]-Iodocyanopindolol); conditions: inhibition of [125I]-Iodocyanopindolol (0.036 nM) binding; read-out: β1 bind p IC50 (converted)
T2 construct: purchased Euroscreen
T2 sequence (P08588 whole entry): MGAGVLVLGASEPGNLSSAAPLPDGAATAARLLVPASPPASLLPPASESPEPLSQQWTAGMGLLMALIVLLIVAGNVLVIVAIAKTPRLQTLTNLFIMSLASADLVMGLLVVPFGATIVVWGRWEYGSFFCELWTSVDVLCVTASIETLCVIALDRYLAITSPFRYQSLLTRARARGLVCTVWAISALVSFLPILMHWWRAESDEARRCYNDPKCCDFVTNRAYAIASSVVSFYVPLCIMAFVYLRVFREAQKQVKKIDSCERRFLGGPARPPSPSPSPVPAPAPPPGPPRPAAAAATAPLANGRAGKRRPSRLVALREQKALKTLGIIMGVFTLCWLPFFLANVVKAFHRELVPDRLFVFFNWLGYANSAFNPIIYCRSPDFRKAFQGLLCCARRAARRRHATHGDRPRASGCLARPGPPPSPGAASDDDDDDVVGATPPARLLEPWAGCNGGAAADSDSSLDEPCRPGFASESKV
Protocol: (§1) Membranes containing recombinant human adrenergic beta 1 receptors were obtained from Euroscreen. These were diluted in Assay Buffer (50 mM HEPES, 1 mM EDTA, 120 mM NaCl, 0.1% gelatin, pH 7.4) to provide a final concentration of membranes that gave a clear window between maximum and minimum specific binding.
Assays were performed in U-bottomed 96-well polypropylene plates. 10 μL [^125I]-Iodocyanopindolol (0.036 nM final concentration) and 10 μL of test compound (10× final concentration) were added to each test well. For each assay plate 8 replicates were obtained for [^125I]-Iodocyanopindolol binding in the presence of 10 μL vehicle (10% (v/v) DMSO in Assay Buffer; defining maximum binding) or 10 μL Propranolol (10 μM final concentration; defining non-specific binding (NSB)). Membranes were then added to achieve a final volume of 100 μL. The plates were incubated for 2 hours at room temperature and then filtered onto PEI coated GF/B filter plates, pre-soaked for 1 hour in Assay Buffer, using a 96-well plate Tomtec cell harvester. Five washes with 250 μL wash buffer (50 mM HEPES, 1 mM EDTA, 120 mM NaCl, pH 7.4) were performed at 4° C. to remove unbound radioactivity. The plates were dried then sealed from underneath using Packard plate sealers and MicroScint-O (50 μL) was added to each well. The plates were sealed (TopSeal A) and filter-bound radioactivity was measured with a scintillation counter (TopCount, Packard BioScience) using a 3-minute counting protocol.
(§2) Total specific binding (B0) was determined by subtracting the mean NSB from the mean maximum binding. NSB values were also subtracted from values from all other wells. […] Data was fitted to a four parameter logistic equation to determine the compound potency, which was expressed as pIC50 (negative log molar concentration inducing 50% inhibition of [^125I]-Iodocyanopindolol binding).

[3] = biological target: T3, recombinant human Dopamine Subtype D2s receptors (Homo sapiens, UniProt P14416); assay: Dopamine D2 selectivity binding assay ([3H]-spiperone); conditions: inhibition of [3H]-spiperone (0.16 nM) binding; read-out: D2 bind pIC50 (converted)
T3 construct: purchased Perkin Elmer
T3 sequence (P14416 1-414 isoform P14416-2): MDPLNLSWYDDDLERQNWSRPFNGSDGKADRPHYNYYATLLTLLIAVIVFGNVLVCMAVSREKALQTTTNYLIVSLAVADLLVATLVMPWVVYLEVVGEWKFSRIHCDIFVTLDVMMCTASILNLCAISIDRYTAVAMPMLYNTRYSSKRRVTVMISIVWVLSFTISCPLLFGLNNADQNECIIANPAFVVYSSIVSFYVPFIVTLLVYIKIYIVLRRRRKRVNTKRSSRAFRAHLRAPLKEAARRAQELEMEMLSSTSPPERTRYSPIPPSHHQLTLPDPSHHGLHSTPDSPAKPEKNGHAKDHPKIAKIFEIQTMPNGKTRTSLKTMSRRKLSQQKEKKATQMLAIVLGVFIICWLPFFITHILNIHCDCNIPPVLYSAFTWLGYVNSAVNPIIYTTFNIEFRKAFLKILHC
Protocol: as §1, with “Dopamine Subtype D2s” for “adrenergic beta 1”, “Perkin Elmer.” for “Euroscreen.”
Assays were performed in U-bottomed 96-well polypropylene plates. 30 μL [^3H]-spiperone (0.16 nM final concentration) and 30 μL of test compound (10× final concentration) were added to each test well. For each assay plate 8 replicates were obtained for [^3H]-spiperone binding in the presence of 30 μL vehicle (10% (v/v) DMSO in Assay Buffer; defining maximum binding) or 30 μL Haloperidol (10 μM final concentration; defining non-specific binding (NSB)). Membranes were then added to achieve a final volume of 300 μL. The plates were incubated for 2 hours at room temperature and then filtered onto PEI coated GF/B filter plates, pre-soaked for 1 hour in Assay Buffer, using a 96-well plate Tomtec cell harvester. Five washes with 250 μL wash buffer (50 mM HEPES, 1 mM EDTA, 120 mM NaCl, pH 7.4) were performed at 4° C. to remove unbound radioactivity. The plates were dried then sealed from underneath using Packard plate sealers and MicroScint-O (50 μL) was added to each well. The plates were sealed (TopSeal A) and filter-bound radioactivity was measured with a scintillation counter (TopCount, Packard BioScience) using a 3-minute counting protocol.
as §2, with “[^3H]-spiperone” for “[^125I]-Iodocyanopindolol”

SMILES	EC50 [1] [µM]	β2 Int Act [1]	IC50 [2] [µM]	IC50 [3] [µM]
CC(C)(CN(CCNCCc1ccc(O)c2[nH]c(=O)sc12)C(=O)CCNCCc1ccccc1)c1ccccc1 [Example 45, N^1-(2-{[2-(4-Hydroxy-2-oxo-2,3-dihydro-1,3-benzothiazol-7-yl)ethyl]amino}ethyl)-N^1-(2-methyl-2-phenylpropyl)-N^3-(2-phenylethyl)-β-alaninamide bis-trifluoroacetic acid salt]	0.0251	0.55	1.26	0.251
Cc1ccccc1CCNCCC(=O)N(CCNCCc1ccc(O)c2[nH]c(=O)sc12)C1CCOCC1 [Example 27, N-(2-{[2-(4-Hydroxy-2-oxo-2,3-dihydro-1,3-benzothiazol-7-yl)ethyl]amino}ethyl)-N^3-[2-(2-methylphenyl)ethyl]-N-(tetrahydro-2H-pyran-4-yl)-β-alaninamide bis-trifluoroacetic acid salt]	0.01	0.95	5.01	3.16
O=C(CCNCCc1cccc(O)c1)N(CCNCCc1ccc(O)c2[nH]c(=O)sc12)C1CCCCCC1 [Example 37, N-Cycloheptyl-N-(2-{[2-(4-hydroxy-2-oxo-2,3-dihydro-1,3-benzothiazol-7-yl)ethyl]amino}ethyl)-N^3-[2-(3-hydroxyphenyl)ethyl]-β-alaninamide bis-trifluoroacetic acid salt]	0.001	0.91	3.98	0.398
O=C(CCNCCc1cccc(Cl)c1)N(CCNCCc1ccc(O)c2[nH]c(=O)sc12)C1CCCCCC1 [Example 50, N^3-[2-(3-Chlorophenyl)ethyl]-N^1-cycloheptyl-N^1-(2-{[2-(4-hydroxy-2-oxo-2,3-dihydro-1,3-benzothiazol-7-yl)ethyl]amino}ethyl)-β-alaninamide bis-trifluoroacetic acid salt]	0.00126	0.91	0.794	0.0316
O=C(CCNCCc1cccc(Cl)c1)N(CCNCCc1ccc(O)c2[nH]c(=O)sc12)C1CCC(F)(F)CC1 [Example 47, N^3-[2-(3-Chlorophenyl)ethyl]-N^1-(4,4-difluorocyclohexyl)-N^1-(2-{[2-(4-hydroxy-2-oxo-2,3-dihydro-1,3-benzothiazol-7-yl)ethyl]amino}ethyl)-β-alaninamide bis-trifluoroacetic acid salt]	0.00316	0.73	1.26	0.158

The remaining lines, values ahead:

EC50 [1] [µM]	β2 Int Act [1]	IC50 [2] [µM]	IC50 [3] [µM]	SMILES
0.00501	0.85	7.94	0.2	O=C(CCNCCc1ccc(F)c(F)c1)N(CCNCCc1ccc(O)c2[nH]c(=O)sc12)C1CCCCC1 [Example 73, N^1-Cyclohexyl-N^3-[2-(3,4-difluorophenyl)ethyl]-N^1-(2-{[2-(4-hydroxy-2-oxo-2,3-dihydro-1,3-benzothiazol-7-yl)ethyl]amino}ethyl)-β-alaninamide bis-trifluoroacetic acid salt]
0.01	0.74	3.98	0.0794	O=C(CCNCCc1ccc(F)c(F)c1)N(CCNCCc1ccc(O)c2[nH]c(=O)sc12)C1CCCCCC1 [Example 53, N^1-Cycloheptyl-N^1-[2-(3,4-difluorophenyl)ethyl]-N^1-(2-{[2-(4-hydroxy-2-oxo-2,3-dihydro-1,3-benzothiazol-7-yl)ethyl]amino}ethyl)-β-alaninamide bis-trifluoroacetic acid salt]
0.00398	0.89	3.16	0.126	O=C(CCNCCc1ccc(Cl)s1)N(CCNCCc1ccc(O)c2[nH]c(=O)sc12)C1CCCCC1 [Example 72, N^3-[2-(5-Chloro-2-thienyl)ethyl]-N^1-cyclohexyl-N^1-(2-{[2-(4-hydroxy-2-oxo-2,3-dihydro-1,3-benzothiazol-7-yl)ethyl]amino}ethyl)-β-alaninamide bis-trifluoroacetic acid salt]
